# In patent US20160348147A1, “SYSTEMS AND DEVICES FOR PROTEASE DETECTION BASED ON ENGINEERED POLYMERS AND BIOPOLYMERS AND METHODS OF USE” (DUKE UNIVERSITY, priority 2014, published 2016):
# System: endogenous MMP-1 in human serum
# Experiment: Time-dependent aggregation (OD350) of ELP-substrate fusion in diluted human serum (40%)
# Format: biochemical
# Settings: diluted serum with no added MMP-1, 37° C.
# Description: We performed the proteolysis reactions either in 100% protease buffer or in a mixture of human serum and buffer (40% (v/v) serum, 50% (v/v) buffer, 10% (v/v) ELP-substrate solution in water). The proteolysis buffer (100 mM HEPES, CaCl2 20 mM, MgCl2 1.0 mM, ZnCl2 100 μM, NaCl 0.5 M for diluted serum and 0.1 M for buffer solutions) was made experimentally in our lab based on previously published assays (Patterson, J. & Hubbell, J. A. Biomaterials 2010, 31, 7836-7845; Turk, B. E. et al., Nature Biotechnology 2001, 19, 661-667; Lowe, S. B. et al., Acs Nano 2012, 6, 851-857). We investigated proteolysis in two ways. In the first approach, we incubated solutions of the ELP-substrate fusion with MMP-1 (100 ng/mL) for 12 h at 40° C. temperature and measured the optical density at 350 nm (OD350) before and after the incubation. In the second approach, we incubated the ELP-substrate fusion with varying concentrations of MMP-1 (0.02 ng/mL to 200 ng/mL) in buffer or in diluted human serum, at 40° C. or 37° C. respectively, a temperature that is above the CMT of the ELP, and monitored the changes OD350 as a function of time (kinetic study). For the kinetic studies, we added the enzyme to the solution after the optical density of the solution reached a steady-state value and repeated the experiments at least three times. […]
# Chain of endogenous MMP-1 in human serum (P03956 100-269 limits assumed): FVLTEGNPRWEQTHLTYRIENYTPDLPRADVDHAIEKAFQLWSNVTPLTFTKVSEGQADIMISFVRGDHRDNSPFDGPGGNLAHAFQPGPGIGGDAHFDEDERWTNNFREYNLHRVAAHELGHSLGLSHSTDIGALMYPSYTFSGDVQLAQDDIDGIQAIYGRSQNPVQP
substance,measurement,value
"M(GVGVP)60GDGQVPMSMRGGDDEGQQDDEEGY (MGVGVPGDGQVPMSMRGGDDEGQQDDEEGY) [ELP-substrate fusion, recombinant polypeptide: ELP fused to MMP-1 substrate and charged hydrophilic peptide]",aggregation time,~350 min
